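GI50 marks 50% less growth. TGI marks complete inhibition of growth.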
Key:
Assay in all cases: DTP human tumour cell line panel, 384-well format
[1] = system: UACC-257 melanoma
[2] = system: MDA-MB-231 breast
[3] = system: HT29 colon
[4] = system: DU-145 prostate
[5] = system: A549 NSCLC
[6] = system: UACC-62 melanoma
[7] = system: SW-620 colon
[8] = system: SK-OV-3 ovarian
[9] = system: SK-MEL-2 melanoma
[10] = system: SK-MEL-5 melanoma
[11] = system: MCF7 breast
[12] = system: TK-10 renal
[13] = system: HCC-2998 colon
[14] = system: U251 glioblastoma
[15] = system: OVCAR-3 ovarian
[16] = system: RPMI-8226 leukemia
[17] = system: A498 renal
[18] = system: SF-295 CNS
[19] = system: MDA-MB-435 melanoma
[20] = system: HCT-15 colon
[21] = system: CAKI-1 renal
[22] = system: OVCAR-8 ovarian
[23] = system: HCT-116 colon
[24] = system: MDA-MB-468 breast
[25] = system: SN12C renal
[26] = system: NCI-H23 lung
[27] = system: HOP-92 NSCLC
[28] = system: SF-268 CNS
[29] = system: HL-60(TB) leukemia
[30] = system: KM12 colon
[31] = system: SNB-19 CNS
[32] = system: HOP-62 NSCLC
[33] = system: NCI-H460 NSCLC
[34] = system: BT-549 breast
[35] = system: EKVX NSCLC
[36] = system: K-562 leukemia
[37] = system: MALME-3M melanoma
[38] = system: CCRF-CEM leukemia
[39] = system: RXF 393 renal
[40] = system: SNB-75 CNS
[41] = system: M14 melanoma
[42] = system: COLO 205 colon
[43] = system: OVCAR-4 ovarian
[44] = system: 786-0 renal
[45] = system: T-47D breast
[46] = system: NCI/ADR-RES ovarian
[47] = system: LOX IMVI melanoma

With CNC(=O)c1ccccc1Nc1nc(Nc2ccc3c(c2OC)CCC[C@H](N2CCN(CCO)CC2)C3)ncc1Cl as the molecule, how does the GI50 [1] read?
Its GI50 is 327 nM.

What about the TGI [1] of the same molecule?
Its TGI is 993 nM.

And the GI50 [2]?
The GI50 was 974 nM.

What about the TGI [2] of the same molecule?
Its TGI is 2280 nM.

What about the GI50 [3] of the same molecule?
The GI50 was 303 nM.

And the TGI [3]?
The TGI was 1350 nM.

And the GI50 [4]?
Its GI50 is 728 nM.

What about the TGI [4] of the same molecule?
The TGI was 2600 nM.

And the GI50 [5]?
The GI50 was 1080 nM.

What about the TGI [5] of the same molecule?
The TGI was 2330 nM.

And the GI50 [6]?
The GI50 was 673 nM.

And the TGI [6]?
The TGI was 1930 nM.

What about the GI50 [7] of the same molecule?
The GI50 was 727 nM.

And the TGI [7]?
The TGI was 2100 nM.

And the GI50 [8]?
The GI50 was 740 nM.

And the TGI [8]?
The TGI was 2300 nM.

What about the GI50 [9] of the same molecule?
The GI50 was 304 nM.

And the TGI [9]?
Its TGI is 1050 nM.

And the GI50 [10]?
The GI50 was 879 nM.

And the TGI [10]?
The TGI was 2150 nM.

And the GI50 [11]?
Its GI50 is 244 nM.

And the TGI [11]?
Its TGI is 1520 nM.

And the GI50 [12]?
The GI50 was 783 nM.

What about the TGI [12] of the same molecule?
Its TGI is 2480 nM.

And the GI50 [13]?
The GI50 was 1210 nM.

And the TGI [13]?
The TGI was 2550 nM.

And the GI50 [14]?
Its GI50 is 1430 nM.

And the TGI [14]?
Its TGI is 2830 nM.

What about the GI50 [15] of the same molecule?
Its GI50 is 1180 nM.

And the TGI [15]?
The TGI was 2770 nM.

What about the GI50 [16] of the same molecule?
Its GI50 is 1150 nM.

What about the TGI [16] of the same molecule?
Its TGI is 2420 nM.

And the GI50 [17]?
The GI50 was 488 nM.

And the TGI [17]?
Its TGI is 1700 nM.

What about the GI50 [18] of the same molecule?
The GI50 was 1710 nM.

What about the TGI [18] of the same molecule?
The TGI was 3110 nM.

What about the GI50 [19] of the same molecule?
The GI50 was 833 nM.

What about the TGI [19] of the same molecule?
The TGI was 3180 nM.

What about the GI50 [20] of the same molecule?
Its GI50 is 533 nM.

And the TGI [20]?
The TGI was 1730 nM.

What about the GI50 [21] of the same molecule?
Its GI50 is 511 nM.

And the TGI [21]?
Its TGI is 1920 nM.

And the GI50 [22]?
The GI50 was 1500 nM.

What about the TGI [22] of the same molecule?
Its TGI is 3180 nM.

And the GI50 [23]?
The GI50 was 934 nM.

And the TGI [23]?
Its TGI is 2320 nM.

What about the GI50 [24] of the same molecule?
Its GI50 is 384 nM.

What about the TGI [24] of the same molecule?
The TGI was 1660 nM.

And the GI50 [25]?
The GI50 was 1400 nM.

And the TGI [25]?
The TGI was 4340 nM.

What about the GI50 [26] of the same molecule?
Its GI50 is 673 nM.

What about the TGI [26] of the same molecule?
The TGI was 2320 nM.

And the GI50 [27]?
Its GI50 is 985 nM.

And the TGI [27]?
The TGI was 2250 nM.

And the GI50 [28]?
The GI50 was 1550 nM.

What about the TGI [28] of the same molecule?
Its TGI is 3020 nM.

And the GI50 [29]?
The GI50 was 215 nM.

What about the TGI [29] of the same molecule?
Its TGI is 551 nM.

What about the GI50 [30] of the same molecule?
Its GI50 is 955 nM.

And the TGI [30]?
The TGI was 2630 nM.

What about the GI50 [31] of the same molecule?
Its GI50 is 2200 nM.

And the TGI [31]?
The TGI was 5900 nM.

What about the GI50 [32] of the same molecule?
Its GI50 is 1430 nM.

And the TGI [32]?
The TGI was 3170 nM.

And the GI50 [33]?
The GI50 was 1140 nM.

What about the TGI [33] of the same molecule?
Its TGI is 2480 nM.

And the GI50 [34]?
The GI50 was 1970 nM.

And the TGI [34]?
Its TGI is 5200 nM.

What about the GI50 [35] of the same molecule?
Its GI50 is 236 nM.

And the TGI [35]?
The TGI was 1320 nM.

What about the GI50 [36] of the same molecule?
Its GI50 is 1430 nM.

And the TGI [36]?
The TGI was 2820 nM.

And the GI50 [37]?
Its GI50 is 414 nM.

And the TGI [37]?
Its TGI is 1450 nM.

What about the GI50 [38] of the same molecule?
Its GI50 is 1860 nM.

What about the TGI [38] of the same molecule?
Its TGI is 3320 nM.

And the GI50 [39]?
The GI50 was 565 nM.

And the TGI [39]?
Its TGI is 1710 nM.

What about the GI50 [40] of the same molecule?
Its GI50 is 1430 nM.

What about the TGI [40] of the same molecule?
The TGI was 3220 nM.

What about the GI50 [41] of the same molecule?
The GI50 was 632 nM.

What about the TGI [41] of the same molecule?
The TGI was 1850 nM.

And the GI50 [42]?
Its GI50 is 283 nM.

And the TGI [42]?
The TGI was 960 nM.

What about the GI50 [43] of the same molecule?
Its GI50 is 1080 nM.

What about the TGI [43] of the same molecule?
Its TGI is 2790 nM.

And the GI50 [44]?
The GI50 was 1160 nM.

What about the TGI [44] of the same molecule?
Its TGI is 2410 nM.

What about the GI50 [45] of the same molecule?
Its GI50 is 1280 nM.

What about the TGI [45] of the same molecule?
The TGI was 2710 nM.

What about the GI50 [46] of the same molecule?
The GI50 was 2120 nM.

And the TGI [46]?
The TGI was 4370 nM.

And the GI50 [47]?
The GI50 was 655 nM.

What about the TGI [47] of the same molecule?
Its TGI is 1970 nM.

— PubChem BioAssay (NCI)
